Values joined by “and” are separate entries in the source; they are usually repeats but may differ in a detail not shown here. Identical values can stand only once.
Experiments:
Format in all cases: in vivo, mouse
APP/PS1 mice [1] = assay: fluorescent bead phagocytosis assay in live brain slices (Fig 5b); conditions: APP/PS1 + N-AS, individual values
Description: Transgenic mouse lines over-expressing the hAPP695swe (APP) and presenilin-1M146V (PS1) mutations were originated from GlaxoSmithKline (Harlow, UK)[32] and maintained as described previously. We purchased 5×FAD mice from Jackson Labs (Stock number. 34840-JAX). Because APP/PS1 and 5xFAD mice show sex differences in disease progression, we used only male mice. To examine possible therapeutic effect of N-AS and aspirin in APP/PS1 mice, the N-AS (30 mg kg^−1, Sigma-Aldrich, 01912) was injected daily s.c. for 8 weeks to 7-months-old APP/PS1 mice until the age of 9 months, and aspirin (2 mg kg^−1, Sigma-Aldrich, A5376)[33] was administrated orally to 7-months-old APP/PS1 mice for 8 weeks. Also, to confirm possible therapeutic efficacy of N-AS in 5×FAD, the N-AS (30 mg kg^−1, Sigma-Aldrich, 01912) was injected daily s.c. for 4 weeks to 3-months-old 5×FAD mice until the age of 4 months. Block randomization method was used to allocate the animals to experimental groups. To eliminate the bias, we were blinded in experimental progress such as data collection and data analysis. […]
The phagocytic activity of adult microglia in the cortex of live brain slices was analyzed as following protocol. […] The sections were analyzed with a laser-scanning confocal microscope (FV3000; Olympus). MetaMorph software (Molecular Devices) was used to quantification.

5×FAD mice [2] = assay: Iba1+ microglia and GFAP+ astrocyte quantification (Supplementary Fig 8d,e)
Description: (§1) Thioflavin S (Sigma-Aldrich) staining was carried out according to previously described procedures. We used 6E10 (mouse, 1:100, Signet, SIG39300), anti-20G10 (mouse, 1:1000, provided by D. R. Howlett, GlaxoSmithKline, Harlow, Essex, UK) for Aβ42, anti-G30 (rabbit, 1:1000, provided by D. R. Howlett) for Aβ40, SMA (mouse, 1:400, Sigma-Aldrich, A2547), AT8 (mouse, 1:500, Thermo Fisher Scientific, MN1020), Caspase-3 (mouse, 1:200, Novus Biologicals, NB100-56708), ac-S565 (rabbit, 1:100), COX2 (mouse, 1:250, Thermo Fisher Scientific, 35-8200), Iba1 (rabbit, 1:500, Wako, 019-19941 and goat, Abcam, ab5076), NeuN (mouse, 1:500, Millipore, MAB177), GFAP (rabbit, 1:500, Dako, N1506 and chicken, 1:500, Abcam, ab4674), and Lamp1 (mouse, 1:200, Abcam, ab24170). The sections were analyzed with a laser-scanning confocal microscope (FV3000; Olympus) or with a BX51 microscope (Olympus). MetaMorph software (Molecular Devices) was used to quantification. Three-dimensional reconstruction of microglia was recorded and analyzed using IMARIS software (Bitplane)[11]. For the analysis of age-dependent microglial COX2^+ CX3CR1^+ cells in WT and APP/PS1 mice, COX2 (rabbit, 1:100, Abcam, ab15191) and CX3CR1 (mouse, 1:100, BioLegend, 149008) antibody were used and the images were acquired on Alexa 488 and APC Channel with performed using Operetta CLS and Analysis Software 4.5 (Perkin-Elmer). […]

5×FAD mice [3] = assay: ThioS Aβ plaque area and plaque morphometry (Supplementary Fig 8b,c)
Description: Thioflavin S (Sigma-Aldrich) staining was carried out according to previously described procedures. We used 6E10 (mouse, 1:100, Signet, SIG39300), anti-20G10 (mouse, 1:1000, provided by D. R. Howlett, GlaxoSmithKline, Harlow, Essex, UK) for Aβ42, anti-G30 (rabbit, 1:1000, provided by D. R. Howlett) for Aβ40, SMA (mouse, 1:400, Sigma-Aldrich, A2547), AT8 (mouse, 1:500, Thermo Fisher Scientific, MN1020), Caspase-3 (mouse, 1:200, Novus Biologicals, NB100-56708), ac-S565 (rabbit, 1:100), COX2 (mouse, 1:250, Thermo Fisher Scientific, 35-8200), Iba1 (rabbit, 1:500, Wako, 019-19941 and goat, Abcam, ab5076), NeuN (mouse, 1:500, Millipore, MAB177), GFAP (rabbit, 1:500, Dako, N1506 and chicken, 1:500, Abcam, ab4674), and Lamp1 (mouse, 1:200, Abcam, ab24170). The sections were analyzed with a laser-scanning confocal microscope (FV3000; Olympus) or with a BX51 microscope (Olympus). MetaMorph software (Molecular Devices) was used to quantification. Three-dimensional reconstruction of microglia was recorded and analyzed using IMARIS software (Bitplane)[11]. For the analysis of age-dependent microglial COX2^+ CX3CR1^+ cells in WT and APP/PS1 mice, COX2 (rabbit, 1:100, Abcam, ab15191) and CX3CR1 (mouse, 1:100, BioLegend, 149008) antibody were used and the images were acquired on Alexa 488 and APC Channel with performed using Operetta CLS and Analysis Software 4.5 (Perkin-Elmer).
Transgenic mouse lines over-expressing the hAPP695swe (APP) and presenilin-1M146V (PS1) mutations were originated from GlaxoSmithKline (Harlow, UK)[32] and maintained as described previously. We purchased 5×FAD mice from Jackson Labs (Stock number. 34840-JAX). Because APP/PS1 and 5xFAD mice show sex differences in disease progression, we used only male mice. To examine possible therapeutic effect of N-AS and aspirin in APP/PS1 mice, the N-AS (30 mg kg^−1, Sigma-Aldrich, 01912) was injected daily s.c. for 8 weeks to 7-months-old APP/PS1 mice until the age of 9 months, and aspirin (2 mg kg^−1, Sigma-Aldrich, A5376)[33] was administrated orally to 7-months-old APP/PS1 mice for 8 weeks. Also, to confirm possible therapeutic efficacy of N-AS in 5×FAD, the N-AS (30 mg kg^−1, Sigma-Aldrich, 01912) was injected daily s.c. for 4 weeks to 3-months-old 5×FAD mice until the age of 4 months. Block randomization method was used to allocate the animals to experimental groups. To eliminate the bias, we were blinded in experimental progress such as data collection and data analysis. Mice were housed at temperature of 22 °C and a 12 h day/12 h night cycle with free access to tap water and food pellets. All protocols were approved by the Kyungpook National University Institutional Animal Care and Use Committee.

APP/PS1 mice [4] = assay: cerebral amyloid angiopathy (CAA) quantification (Fig 6f); conditions: Cortex; APP/PS1 + N-AS; individual values
Description: as §1

[5] = 5×FAD, N-AS 30 mg kg^-1 daily s.c. 4 weeks

Compound: CCCCCCCCCCCCC/C=C/[C@@H](O)[C@H](CO)NC(C)=O [N-AS, N-((2S,3R,E)-1,3-Dihydroxyoctadec-4-en-2-yl)acetamide]
- number of microglial phagocytes normalized to the total number of microglia (APP/PS1 mice [1]): 0.002363 and 0.002382 and 0.001493 and 0.001786 and 0.001435
- GFAP+ astrocyte (5×FAD mice [2]; 5xFAD+N-AS, sFig 8e (sheet untitled)): 1.617 and 1.112 and 1.516 and 1.497 and 1.364 and 1.314
- neuroinflammation (5×FAD mice [2]; [5]): similarly improved AD pathology of 5×FAD mice
- Aβ plaques by size, <25mM (5×FAD mice [3]; 5xFAD + N-AS, sFig 8c): 92.2364 and 92.245 and 94.982 and 89.4908 and 95.585 and 93.6135
- Aβ plaques by size, >50mM (5×FAD mice [3]; 5xFAD + N-AS, sFig 8c): 5.395 and 4.6761 and 5.546 and 5.244 and 3.581 and 5.111
- Aβ plaques by size, 25-50mM (5×FAD mice [3]; 5xFAD + N-AS, sFig 8c, in % (unit assumed)): 5.341 and 4.808 and 4.956 and 5.7255 and 3.9859 and 4.882
- Aβ plaque deposit and Aβ plaque phagocytosis (5×FAD mice [3]; [5]): similarly improved AD pathology of 5×FAD mice
- amyloid angiopathy (CAA) quantification (APP/PS1 mice [4]): 0.11 and 0.15 and 0.12 and 0.1 and 0.17 and 0.13
